One block for each compound: values may come before it.
System: 519858-162-T-J1-PDC complex spheroid viability
Assay: Anticancer human tumor 519858-162-T-J1-PDC patient-derived colon adenocarcinoma cell line growth inhibition [GQUAD]
Settings: for viability, T/C: stronger effect = lower value
Text: DNA G-quadruplex Stabilizer Agents in Combinations in Complex Spheroids
A high-throughput screen of multi-cell type tumor spheroids was designed to identify active combinations of DNA G-quadruplex stabilizer agents and targeted small molecules. Complex spheroids include a stromal component modeled by human endothelial cells (HUVEC) and fibroblasts modeled by human mesenchymal stem cells (MSCs). The concentration ranges selected for each drug and investigational agent were based upon clinically achievable concentrations if the clinical Cmax of the agent was known.
Compounds. The drugs and investigational agents: pidnarulex (CX-5461; NSC782164), APTO-253 (NSC789042), BRACO-19 (NSC847499), peposertib (NSC802822), ceralasertib (NSC780249), elimusertib (NSC800525), camonsertib (NSC841442), AZD-1390 (NSC803789), olaparib (NSC753686), talazoparib (NSC767125), ART-558 (NSC835418), sotorasib (NSC818433), MRTX-1133 (NSC836407), SN-38 (NSC673596), topotecan (NSC609699), etoposide (NSC141540), doxorubicin (NSC123127), gemcitabine (NSC613327), 5-fluorouracil (NSC19893), paclitaxel (NSC125973), vemurafenib (NSC761431), panobinostat (NSC761190), R-306465 (JNJ-16241199; NSC773264), adavosertib (NSC754352), TP-3654 (NSC805149), carboplatin (NSC241240), KSQ-4279 (NSC840948), and staurosporine (NSC755774) were obtained from the National Cancer Institute (NCI) Developmental Therapeutics Program Chemical Repository (34). The FDA-approved anticancer drug set is available from the NCI Developmental Therapeutics Program. […] The stock solutions were prepared in dimethyl sulfoxide (DMSO, Sigma-Aldrich, St. Louis, MO, cat. D2650) at 800-fold the tested concentration and stored at -70 degrees C prior to their use. All drugs and investigational agents were tested over a range starting from a high concentration at or near the clinical Cmax and decreasing in half-log increments. If the clinical Cmax for an agent had not been determined, the highest concentration tested was 10 microM.
2.3 Cell Culture. All cells were maintained in an incubator at 37 degrees C and 5% CO2 with 95% humidity. The PDC lines were cultured according to standard operating procedures established by the NCI PDMR. All PDCs were thawed and cultured in Matrigel-coated flasks prepared with a working solution of 1X Ham's F-12 nutrient mix, without supplementation (Invitrogen, cat. 11765054), 100 U/mL penicillin-streptomycin (Invitrogen, cat. 15140122), and 2.5% Matrigel (Corning Inc., cat. 354248) for the first three passages. The 857933-349-R-J2-PDC line was cultured in 6C/Colon 1B media, which includes advanced DMEM/F-12 (Thermo Fisher Scientific, cat. 12634028), 10 mM HEPES (Thermo Fisher Scientific, cat. 15630080), 1X GlutaMAX supplement (Thermo Fisher Scientific, cat. 35050061), 0.1 mg/mL primocin (InvivoGen, cat. ant-pm-2), 10% defined fetal bovine serum, heat inactivated (HyClone Laboratories Inc., cat. SH30070.03HI), 50% L-WRN conditioned media (ATCC, cat. CRL-3276), 1.25 mM N-Acetyl-L-cysteine (Sigma-Aldrich, cat. A9165), 10 mM nicotinamide (Sigma-Aldrich, cat. N0636), 1X B-27 supplement (Thermo Fisher Scientific, cat. 17504044), 1X N-2 supplement (Thermo Fisher Scientific, cat. 17502048), 10 microM Y-27632 dihydrochloride (Tocris Bioscience, cat. 1254), and 50 ng/mL human EGF recombinant protein (Thermo Fisher Scientific, cat. PHG0311). The 485176-168-R4-J1-PDC line was cultured in Panc media, which includes all 6C/Colon 1B media components plus 100 ng/mL human FGF-10 (Thermo Fisher Scientific, cat. 100-26), 500 nM SB-431542 (Selleckchem, cat. S1067), and gastrin (Tocris, cat. 3006).
[…]

[1] = curve of first compound, second compound 0.0316 µM
[2] = curve of first compound, second compound 0.1 µM
[3] = curve of first compound, second compound 0.316 µM
[4] = curve of first compound, second compound 1 µM
[5] = curve of first compound, second compound 3.16 µM
[6] = curve of first compound, second compound 10 µM
[7] = second compound 0.0316 µM, first compound 0.0316 µM
[8] = second compound 0.0316 µM, first compound 0.1 µM
[9] = second compound 0.0316 µM, first compound 0.316 µM
[10] = second compound 0.0316 µM, first compound 1 µM
[11] = second compound 0.0316 µM, first compound 3.16 µM
[12] = second compound 0.0316 µM, first compound 10 µM
[13] = second compound 0.1 µM, first compound 0.0316 µM
[14] = second compound 0.1 µM, first compound 0.1 µM
[15] = second compound 0.1 µM, first compound 0.316 µM
[16] = second compound 0.1 µM, first compound 1 µM
[17] = second compound 0.1 µM, first compound 3.16 µM
[18] = second compound 0.1 µM, first compound 10 µM
[19] = second compound 0.316 µM, first compound 0.0316 µM
[20] = second compound 0.316 µM, first compound 0.1 µM
[21] = second compound 0.316 µM, first compound 0.316 µM
[22] = second compound 0.316 µM, first compound 1 µM
[23] = second compound 0.316 µM, first compound 3.16 µM
[24] = second compound 0.316 µM, first compound 10 µM
[25] = second compound 1 µM, first compound 0.0316 µM
[26] = second compound 1 µM, first compound 0.1 µM
[27] = second compound 1 µM, first compound 0.316 µM
[28] = second compound 1 µM, first compound 1 µM
[29] = second compound 1 µM, first compound 3.16 µM
[30] = second compound 1 µM, first compound 10 µM
[31] = second compound 3.16 µM, first compound 0.0316 µM
[32] = second compound 3.16 µM, first compound 0.1 µM
[33] = second compound 3.16 µM, first compound 0.316 µM
[34] = second compound 3.16 µM, first compound 1 µM
[35] = second compound 3.16 µM, first compound 3.16 µM
[36] = second compound 3.16 µM, first compound 10 µM
[37] = second compound 10 µM, first compound 0.0316 µM
[38] = second compound 10 µM, first compound 0.1 µM
[39] = second compound 10 µM, first compound 0.316 µM
[40] = second compound 10 µM, first compound 1 µM
[41] = second compound 10 µM, first compound 3.16 µM
[42] = second compound 10 µM, first compound 10 µM
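Also: spheroids exposed to compounds for 7 days.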
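For viability, T/C in this document: 100% = DMSO vehicle control viability.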

SMILES: COc1ncnc(C2CC2)c1-c1ncc2cnn(Cc3ccc(-c4nc(C(F)(F)F)cn4C(C)C)cc3)c2n1 + CN(C)c1ccc(Nc2c3ccc(NC(=O)CCN4CCCC4)cc3nc3cc(NC(=O)CCN4CCCC4)ccc23)cc1
- IC50 [1]: > 10 µM
- IC50 [2]: > 10 µM
- IC50 [3]: > 10 µM
- IC50 [4]: > 10 µM
- IC50 [5]: > 10 µM
- IC50 [6]: > 10 µM
- viability, T/C [7]: 120%
- viability, T/C [8]: 83%
- viability, T/C [9]: 103%
- viability, T/C [10]: 89.3%
- viability, T/C [11]: 99.6%
- viability, T/C [12]: 115%
- viability, T/C [13]: 93.4%
- viability, T/C [14]: 97.8%
- viability, T/C [15]: 102%
- viability, T/C [16]: 75.6%
- viability, T/C [17]: 91.4%
- viability, T/C [18]: 103%
- viability, T/C [19]: 86%
- viability, T/C [20]: 117%
- viability, T/C [21]: 116%
- viability, T/C [22]: 76%
- viability, T/C [23]: 66.5%
- viability, T/C [24]: 84.9%
- viability, T/C [25]: 85.1%
- viability, T/C [26]: 80.7%
- viability, T/C [27]: 67.5%
- viability, T/C [28]: 68%
- viability, T/C [29]: 73%
- viability, T/C [30]: 72.4%
- viability, T/C [31]: 114%
- viability, T/C [32]: 79.7%
- viability, T/C [33]: 52.2%
- viability, T/C [34]: 56.6%
- viability, T/C [35]: 54%
- viability, T/C [36]: 69.8%
- viability, T/C [37]: 58.7%
- viability, T/C [38]: 53.3%
- viability, T/C [39]: 99.4%
- viability, T/C [40]: 61.9%
- viability, T/C [41]: 51.7%
- viability, T/C [42]: 104%

- IC50 (curve of compound): > 10 µM
SMILES: CCCS(=O)(=O)Nc1ccc(F)c(C(=O)c2c[nH]c3ncc(-c4ccc(Cl)cc4)cc23)c1F
- viability, T/C (compound 0.0316 µM): 88.3%
- viability, T/C (compound 0.1 µM): 112%
- viability, T/C (compound 0.316 µM): 114%
- viability, T/C (compound 1 µM): 97.1%
- viability, T/C (compound 3.16 µM): 125%
- viability, T/C (compound 10 µM): 103%

SMILES: COc1ccc([C@@H](O)c2cc(-c3ncnc4cc(N5CCOCC5)ccc34)c(F)cc2Cl)nn1 + CN(C)c1ccc(Nc2c3ccc(NC(=O)CCN4CCCC4)cc3nc3cc(NC(=O)CCN4CCCC4)ccc23)cc1
- IC50 [1]: > 10 µM
- IC50 [2]: > 10 µM
- IC50 [3]: > 10 µM
- IC50 [4]: > 10 µM
- IC50 [5]: > 10 µM
- IC50 [6]: > 10 µM
- viability, T/C [7]: 113%
- viability, T/C [8]: 130%
- viability, T/C [9]: 110%
- viability, T/C [10]: 82.1%
- viability, T/C [11]: 98%
- viability, T/C [12]: 97.7%
- viability, T/C [13]: 119%
- viability, T/C [14]: 90.7%
- viability, T/C [15]: 92.1%
- viability, T/C [16]: 148%
- viability, T/C [17]: 87.9%
- viability, T/C [18]: 127%
- viability, T/C [19]: 86.8%
- viability, T/C [20]: 108%
- viability, T/C [21]: 95.2%
- viability, T/C [22]: 92.5%
- viability, T/C [23]: 104%
- viability, T/C [24]: 85.8%
- viability, T/C [25]: 92.6%
- viability, T/C [26]: 75.7%
- viability, T/C [27]: 72%
- viability, T/C [28]: 88.7%
- viability, T/C [29]: 57.4%
- viability, T/C [30]: 82.2%
- viability, T/C [31]: 102%
- viability, T/C [32]: 65.1%
- viability, T/C [33]: 53.8%
- viability, T/C [34]: 66.3%
- viability, T/C [35]: 94.1%
- viability, T/C [36]: 83.5%
- viability, T/C [37]: 74.5%
- viability, T/C [38]: 95.2%
- viability, T/C [39]: 73.4%
- viability, T/C [40]: 86.1%
- viability, T/C [41]: 72.4%
- viability, T/C [42]: 88.4%

Source: PubChem BioAssay AID2060507 (Molecular Pharmacology Branch, DTP, NCI, 2025)
